Test results from paper PMC4764943, “Inhibitory effect of traditional oriental medicine-derived monoamine oxidase B inhibitor on radioresistance of non-small cell lung cancer” (Scientific Reports, 2016).

What was measured:
[1] = biological target: T1, MAOB (monoamine oxidase B) (Homo sapiens, UniProt P27338); assay: ITC ([…] stoichiometry); also MAOB activity inhibition in vitro, IC50 […]; type: binding
T1 construct: recombinant human MAOB
T1 sequence (P27338 2-520): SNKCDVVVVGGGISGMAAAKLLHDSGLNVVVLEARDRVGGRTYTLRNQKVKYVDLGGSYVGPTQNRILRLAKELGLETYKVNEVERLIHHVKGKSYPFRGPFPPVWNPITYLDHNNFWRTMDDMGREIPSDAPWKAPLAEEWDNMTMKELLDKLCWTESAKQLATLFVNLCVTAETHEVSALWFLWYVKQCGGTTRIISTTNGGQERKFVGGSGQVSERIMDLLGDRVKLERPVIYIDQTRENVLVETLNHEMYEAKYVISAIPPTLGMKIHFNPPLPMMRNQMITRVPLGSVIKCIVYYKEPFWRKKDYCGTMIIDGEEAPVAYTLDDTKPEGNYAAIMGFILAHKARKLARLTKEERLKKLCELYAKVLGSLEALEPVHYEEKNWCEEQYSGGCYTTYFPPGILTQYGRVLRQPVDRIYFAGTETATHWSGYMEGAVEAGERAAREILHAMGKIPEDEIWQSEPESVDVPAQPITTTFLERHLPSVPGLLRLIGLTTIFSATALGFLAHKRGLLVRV

[2] = biological target: T1, MAOB (monoamine oxidase B); assay: ITC; type: binding

O=C(O)[C@H](O)Cc1ccc(O)c(O)c1 [danshensu, 3-(3,4-dihydroxyphenyl)-2-hydroxy-propanoic acid]
Kd [1]: 16 ± 0.8 µM

CNCC(O)c1ccc(O)cc1 (stereo not drawn) [synephrine]
Kd ([2]; read-out: Kd): 183 ± 10.3 µM

COc1cc(C=O)ccc1O [vanillin]
Kd [2]: 165 ± 9.1 µM
